Assays:
ABCA1 [1] = test: ABCA1 protein concentration in fibroblasts during cholesterol efflux; type: cell-based, human; conditions: efflux in the presence of FABAC, compared to untreated cells
Method: (§1) Steamchol was incubated with human skin fibroblasts for 20 hours to measure cholesterol loading in the presence of [^3H] cholesterol. After series of washing and adding efflux containing cholesterol acceptors, medium was collected and centrifuged and cell associated cholesterol was compared to effluxed cholesterol in the presence and absence of the similar FABAC. This research project also included quantification of mRNA of ABCA1 and direct measurement of ABCA1.
(§2) Similarly, cells were pre-incubated with […] cholesterol, washed four times and then placed in an incubation medium with or without Aramchol for 20 hours. Following the incubation, radioactivity was measured separately in the medium and in the cells. Cholesterol efflux percentage was calculated as radioactivity in medium divided by the total radioactivity (cells+medium).

human skin fibroblasts = test: Cholesterol efflux with [3H] cholesterol in fibroblasts; type: cell-based; conditions: 20 hours incubation, compared to untreated cells
Method: as §1, §2

sebum production = conditions: background statement; cited from earlier work
[2] = system: Full-thickness Epiderm cultures (EFT-400, MatTek); test: Cytotoxicity assay (MTT) after topical application to full-thickness skin cultures; type: cell-based; conditions: for Cell Viability: 24-hour exposure, MTT, vs untreated control
Method: Full-thickness Epiderm cultures (EFT-400, MatTek) were used to determine toxicity in response to topical application of a test material (Steamchol).
The test material was provided as a powder. Test solutions were prepared by adding the appropriate amount of powdered material to 1 mL DMSO. Lower concentrations were made by serial dilution with 100% DMSO. The final test material concentrations and treatments were: 2% Steamchol (20,000 ug/mL); 1% Steamchol (10,000 ug/mL); 0.1% Steamchol (1000 ug/mL); 0.01% Steamchol (100 ug/mL); vehicle control (100% DMSO); and untreated control.
Full-thickness skin cultures (EFT-400) were maintained according to MatTek protocol; the cultures were equilibrated at 37° C. and 5% CO2 for 24 hours prior to application of test materials. Test material was applied to the surface of each culture using sterile techniques (10 μL applied to each culture). Two cultures were assigned to each treatment group and the viability percentages presented below are averages of viability of each two cultures. Two EFT cultures served as an untreated control (also referred to as negative control in FIG. 2), and two other EFT cultures served as a positive control (100 μL 1% Triton X-100).
Following a 24-hour incubation period with the test material, cultures were processed for cell toxicity analysis using an MTT [(3-4,5-dimethylthiazole-2-yl) 2,5-diphenyltetrazoliumbromide] assay (reagents purchased from MatTek). Viable tissues converted MTT into a blue formazan salt that was detected by measuring absorbance at a specific wavelength of light (A570). Percent viability was calculated by comparing the A570 reading of the test cultures to the A570 of the untreated control culture, using the following formula: [Treated A570/Untreated A570]*100

ABCA1 [3] = test: Taqman gene expression in Epiderm FT skin culture, ABCA1 mRNA; type: cell-based; conditions: 0.5% (5000 μg/mL) in DMSO, 24 hours post-application, vs DMSO control
Method: (§3) A full-thickness in vitro skin culture model, Epiderm FT (MatTek, MA), was treated with Steamchol. A non-cytotoxic concentration of Steamchol in DMSO (0.5%, 5000 μg/mL) was applied to the surface of each test culture and cells were collected 24 hours post-application. Control cells were similarly treated with DMSO without Steamchol. Tissues were collected in RNAlater for gene expression analysis. Gene expression was analyzed using validated Taqman gene expression assays in a Taqman Low Density Array (TLDA) format. 94 genes that regulate a variety of known functions in skin were analyzed, including the ABCA1 and SCD1 genes. The experimental set up was conducted in a 96-well format using validated Taqman gene expression assays. Each gene was assayed in duplicates. Statistics were carried out using the StatMiner software v4.2 (unpaired t-tests, p<0.05, N=4) to compare the 0.5% Steamchol group to the DMSO control group.

KRT10 (keratin 10) = test: Taqman gene expression in Epiderm FT skin culture, KRT10; type: cell-based; conditions: 0.5% (5000 μg/mL) in DMSO, 24 hours post-application, vs DMSO control
Method: as §3

KRT1 (keratin 1) = test: Taqman gene expression in Epiderm FT skin culture, KRT1; type: cell-based; conditions: 0.5% (5000 μg/mL) in DMSO, 24 hours post-application, vs DMSO control
Method: as §3

## CCCCCCCCCCCCCCCCCCCC(=O)N[C@H]1CC[C@@]2(C)[C@@H](C1)C[C@@H](O)[C@@H]1[C@@H]2C[C@H](O)[C@]2(C)[C@@H]([C@H](C)CCC(=O)O)CC[C@@H]12 [Aramchol, 3β-arachidylamido-7α,12α, dihidroxy-5β-cholan-24-oic acid]
ABCA1 [1]
  ABCA1 protein concentration increase: approximately 2 fold
Human skin fibroblasts
  Cholesterol efflux in fibroblasts: significantly enhanced

## CC1=C(/C=C/C(C)=C/C=C/C(C)=C\C(=O)O)C(C)(C)CCC1 [Isotretinoin]
Sebum production
  Decrease of sebum production: up to 90%

## CCCCCCCCCCCCCCCCCC(=O)N[C@H]1CC[C@@]2(C)[C@@H](C1)C[C@@H](O)[C@@H]1[C@@H]2C[C@H](O)[C@]2(C)[C@@H]([C@H](C)CCC(=O)O)CC[C@@H]12 [Steamchol, 3β-stearylamido-7α,12α, dihidroxy-5β-cholan-24-oic acid]
[2]; 0.01% Steamchol (100 ug/mL) in DMSO
  Cell Viability: 100.41%
[2]; 0.1% Steamchol (1000 ug/mL) in DMSO
  Cell Viability: 99.98%
[2]; 1% Steamchol (10,000 ug/mL) in DMSO
  Cell Viability: 96.88%
[2]; 2% Steamchol (20,000 ug/mL) in DMSO
  Cell Viability: 93.89%
[2]; 40.0, 13.3, 4.4, 1.5 ug/mL, data not shown
  Toxicity in previous viability assay: no toxicity was observed
[2]; all dilutions tested (0.01%-2%), 24 hours
  Cell viability compared to the untreated control: ~100%
ABCA1 [1]
  ABCA1 protein concentration increase: approximately 2 fold
ABCA1 [3]
  Change in mRNA levels of ABCA1: No significant change
KRT10 (keratin 10)
  Fold Change of keratin 10 gene expression: −2.60
KRT1 (keratin 1)
  Fold Change of keratin 1 gene expression: −2.49
Human skin fibroblasts
  Cholesterol efflux in fibroblasts: significantly enhanced

Source: patent US20160175324A1, “ANTI-ACNE COMPOSITIONS COMPRISING BILE ACID-FATTY ACID CONJUGATES” (GALDERM THERAPEUTICS LTD., priority 2013, published 2016)
